# Values joined by “and” are separate entries in the source; they are usually repeats but may differ in a detail not shown here. Identical values can stand only once. Inconclusive results and toxic doses are left out.
# System: BDF1 mice, P388 leukemia ip, median survival T/C
# Experiment: NCI In Vivo Anticancer Drug Screen. Data for tumor model P388 Leukemia (intraperitoneal) in B6D2F1 (BDF1) mice
# Conditions: endpoint: median survival time, higher = longer survival
# Summary of the method: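 Survival ratio, drug arm over vehicle arm, in mice with a transplanted tumour.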
# [1] = dose: 50.0 mg/kg/injection, schedule: Q01DX009 (ip), vehicle: saline with Tween-80
# [2] = dose: 100.0 mg/kg/injection, schedule: Q01DX009 (ip), vehicle: saline with Tween-80
# [3] = dose: 200.0 mg/kg/injection, schedule: Q01DX009 (ip), vehicle: saline with Tween-80
# [4] = dose: 100.0 mg/kg/injection, schedule: Q04DX002 (ip), vehicle: saline with Tween-80
# [5] = dose: 400.0 mg/kg/injection, schedule: Q01DX009 (ip), vehicle: saline with Tween-80
structure (smiles),measurement,setting,value
CC(=O)O[C@]1(C(C)=O)CC[C@H]2[C@@H]3C[C@H](Cl)C4=CC(=O)CC[C@]4(C)[C@H]3CC[C@@]21C,T/C,[1],113 % of control
same,T/C,[2],109 % of control
same,T/C,"dose: 100.0 mg/kg/injection, schedule: Q04DX003 (ip), vehicle: saline with Tween-80",108 % of control
same,T/C,[3],100 % of control
same,T/C,"dose: 200.0 mg/kg/injection, schedule: Q04DX003 (ip), vehicle: saline with Tween-80",100 % of control
C=C1C(=O)OC2/C=C(\C)CC(O)/C=C(/C)CC(OC(=O)C3(C)OC3C)C12 (configuration not stated),T/C,"dose: 100.0 mg/kg/injection, schedule: Q04DX002 (ip), vehicle: Klucel (hydroxypropylcellulose) (HPC)",111 % of control
same,T/C,"dose: 200.0 mg/kg/injection, schedule: Q04DX002 (ip), vehicle: Klucel (hydroxypropylcellulose) (HPC)",113 % of control
NC1=C(c2ccccc2)C(=O)c2ccccc21,T/C,"dose: 100.0 mg/kg/injection, schedule: Q04DX003 (ip), vehicle: Klucel (hydroxypropylcellulose) (HPC)",104 % of control
same,T/C,"dose: 200.0 mg/kg/injection, schedule: Q04DX003 (ip), vehicle: Klucel (hydroxypropylcellulose) (HPC)",109 % of control
same,T/C,"dose: 400.0 mg/kg/injection, schedule: Q04DX003 (ip), vehicle: Klucel (hydroxypropylcellulose) (HPC)",109 % of control
CC(=O)NC1=C(N2CC2C)C(=O)C(NC(C)=O)=C(N2CC2C)C1=O (configuration not stated),T/C,"dose: 0.62 mg/kg/injection, schedule: Q01DX009 (ip), vehicle: saline",119 % of control
same,T/C,"dose: 1.25 mg/kg/injection, schedule: Q01DX009 (ip), vehicle: saline",114 % of control and 115 % of control
same,T/C,"dose: 4.4 mg/kg/injection, schedule: Q04DX003 (ip), vehicle: saline",118 % of control
same,T/C,"dose: 5.0 mg/kg/injection, schedule: Q01DX009 (ip), vehicle: saline",233 % of control and 215 % of control
same,T/C,"dose: 5.56 mg/kg/injection, schedule: Q01DX009 (ip), vehicle: saline",159 % of control
same,T/C,"dose: 6.6 mg/kg/injection, schedule: Q04DX003 (ip), vehicle: saline",104 % of control
same,T/C,"dose: 8.33 mg/kg/injection, schedule: Q01DX009 (ip), vehicle: saline",236 % of control
same,T/C,"dose: 11.0 mg/kg/injection, schedule: Q04DX003 (ip), vehicle: saline",166 % of control and 215 % of control
same,T/C,"dose: 12.5 mg/kg/injection, schedule: Q01DX009 (ip), vehicle: saline",163 % of control
same,T/C,"dose: 15.0 mg/kg/injection, schedule: Q04DX003 (ip), vehicle: saline",163 % of control
same,T/C,"dose: 16.5 mg/kg/injection, schedule: Q04DX003 (ip), vehicle: saline",230 % of control and 222 % of control
same,T/C,"dose: 18.7 mg/kg/injection, schedule: Q01DX009 (ip), vehicle: saline",90 % of control
same,T/C,"dose: 25.0 mg/kg/injection, schedule: Q04DX003 (ip), vehicle: saline",255 % of control and 110 % of control
same,T/C,"dose: 37.5 mg/kg/injection, schedule: Q04DX003 (ip), vehicle: saline",183 % of control
same,T/C,"dose: 50.0 mg/kg/injection, schedule: Q04DX003 (ip), vehicle: saline",86 % of control and 100 % of control
CCOC(=O)c1c(N)c2cnn(C)c2[nH]c1=O,T/C,[4],100 % of control
same,T/C,"dose: 200.0 mg/kg/injection, schedule: Q04DX002 (ip), vehicle: saline with Tween-80",90 % of control
same,T/C,"dose: 400.0 mg/kg/injection, schedule: Q04DX002 (ip), vehicle: saline with Tween-80",90 % of control
CCC(=N\NC(=S)NCCN(C)C)/C(C)=N/NC(=S)NCCN(C)C,T/C,"dose: 0.75 mg/kg/injection, schedule: Q04DX003 (ip), vehicle: saline",103 % of control
same,T/C,"dose: 1.5 mg/kg/injection, schedule: Q04DX003 (ip), vehicle: saline",103 % of control
same,T/C,"dose: 3.0 mg/kg/injection, schedule: Q04DX003 (ip), vehicle: saline",97 % of control
Cc1ccc(S(=O)(=O)N(C)SCl)cc1 (tested in a mixture with another compound),T/C,"dose: 100.0 mg/kg/injection, schedule: Q01DX009 (ip), vehicle: other",121 % of control
CC(Nc1ccc(Br)cc1[N+](=O)[O-])C(=O)O (configuration not stated),T/C,"dose: 25.0 mg/kg/injection, schedule: Q01DX009 (ip), vehicle: saline with Tween-80",122 % of control
same,T/C,[1],94 % of control
same,T/C,[2],112 % of control
same,T/C,[3],114 % of control
O=C1c2ccc(Br)cc2-c2cc(Br)ccc21,T/C,[2],99 % of control
same,T/C,[3],106 % of control
same,T/C,[5],101 % of control
CC(C)C1(C)NC(=O)NC1=O (configuration not stated),T/C,"dose: 100.0 mg/kg/injection, schedule: Q01DX001 (ip), vehicle: saline",113 % of control
same,T/C,"dose: 200.0 mg/kg/injection, schedule: Q01DX001 (ip), vehicle: saline",109 % of control
same,T/C,"dose: 400.0 mg/kg/injection, schedule: Q01DX001 (ip), vehicle: saline",95 % of control
C[N-]c1nnnn1Cc1ccccc1.[Au+].c1ccc([PH+](c2ccccc2)c2ccccc2)cc1,T/C,"dose: 25.0 mg/kg/injection, schedule: Q04DX002 (ip), vehicle: saline with Tween-80",109 % of control
same,T/C,"dose: 50.0 mg/kg/injection, schedule: Q04DX002 (ip), vehicle: saline with Tween-80",102 % of control
same,T/C,[4],116 % of control
O=C(c1ccccc1)c1cc[n+]([O-])cc1,T/C,"dose: 75.0 mg/kg/injection, schedule: Q01DX001 (ip), vehicle: saline sonified",91 % of control
same,T/C,"dose: 150.0 mg/kg/injection, schedule: Q01DX001 (ip), vehicle: saline sonified",91 % of control
NC(CC(=O)O)c1nn[nH]n1 (configuration not stated),T/C,[2],95 % of control
same,T/C,[3],95 % of control
same,T/C,[5],100 % of control
O=S(=O)(NCCO)c1ccc(Cl)cc1,T/C,"dose: 100.0 mg/kg/injection, schedule: Q01DX001 (ip), vehicle: Klucel (hydroxypropylcellulose) (HPC)",100 % of control
same,T/C,"dose: 200.0 mg/kg/injection, schedule: Q01DX001 (ip), vehicle: Klucel (hydroxypropylcellulose) (HPC)",100 % of control
same,T/C,"dose: 400.0 mg/kg/injection, schedule: Q01DX001 (ip), vehicle: Klucel (hydroxypropylcellulose) (HPC)",100 % of control
Cc1cc(Cl)nc(Nc2ccccc2)n1,T/C,"dose: 3.12 mg/kg/injection, schedule: Q01DX009 (ip), vehicle: DMSO",100 % of control
same,T/C,"dose: 6.25 mg/kg/injection, schedule: Q01DX009 (ip), vehicle: DMSO",95 % of control and 100 % of control
same,T/C,"dose: 6.25 mg/kg/injection, schedule: Q04DX003 (ip), vehicle: DMSO",100 % of control
same,T/C,"dose: 12.5 mg/kg/injection, schedule: Q01DX009 (ip), vehicle: DMSO",100 % of control
same,T/C,"dose: 12.5 mg/kg/injection, schedule: Q04DX003 (ip), vehicle: DMSO",108 % of control
same,T/C,"dose: 25.0 mg/kg/injection, schedule: Q01DX009 (ip), vehicle: DMSO",95 % of control
same,T/C,"dose: 25.0 mg/kg/injection, schedule: Q04DX003 (ip), vehicle: DMSO",91 % of control
CCC1=C(c2ccc(OC)cc2)CCC(C(=O)O)C1C (configuration not stated),T/C,"dose: 3.0 mg/kg/injection, schedule: Q01DX010 (sc), vehicle: steriod suspending solution",90 % of control
same,T/C,"dose: 6.0 mg/kg/injection, schedule: Q01DX010 (sc), vehicle: steriod suspending solution",105 % of control
same,T/C,"dose: 12.0 mg/kg/injection, schedule: Q01DX010 (sc), vehicle: steriod suspending solution",100 % of control
same,T/C,"dose: 24.0 mg/kg/injection, schedule: Q01DX010 (sc), vehicle: steriod suspending solution",95 % of control
same,T/C,"dose: 48.0 mg/kg/injection, schedule: Q01DX010 (sc), vehicle: steriod suspending solution",100 % of control
same,T/C,"dose: 96.0 mg/kg/injection, schedule: Q01DX010 (sc), vehicle: steriod suspending solution",110 % of control
same,T/C,"dose: 192.0 mg/kg/injection, schedule: Q01DX010 (sc), vehicle: steriod suspending solution",105 % of control
CS(=O)(=O)Nc1ccc(Nc2c3ccccc3nc3ccccc23)cc1,T/C,"dose: 15.0 mg/kg/injection, schedule: Q04DX003 (ip), vehicle: Klucel (hydroxypropylcellulose) (HPC)",109 % of control
same,T/C,"dose: 25.0 mg/kg/injection, schedule: Q01DX009 (ip), vehicle: Klucel (hydroxypropylcellulose) (HPC)",95 % of control
same,T/C,"dose: 50.0 mg/kg/injection, schedule: Q01DX009 (ip), vehicle: Klucel (hydroxypropylcellulose) (HPC)",120 % of control
same,T/C,"dose: 50.0 mg/kg/injection, schedule: Q04DX003 (ip), vehicle: Klucel (hydroxypropylcellulose) (HPC)",122 % of control
same,T/C,"dose: 100.0 mg/kg/injection, schedule: Q04DX003 (ip), vehicle: saline",200 % of control and 209 % of control
same,T/C,"dose: 150.0 mg/kg/injection, schedule: Q04DX003 (ip), vehicle: Klucel (hydroxypropylcellulose) (HPC)",159 % of control
same,T/C,"dose: 175.0 mg/kg/injection, schedule: Q04DX003 (ip), vehicle: saline",237 % of control
same,T/C,"dose: 200.0 mg/kg/injection, schedule: Q04DX003 (ip), vehicle: saline",204 % of control and 223 % of control
same,T/C,"dose: 265.0 mg/kg/injection, schedule: Q04DX003 (ip), vehicle: saline",250 % of control
same,T/C,"dose: 400.0 mg/kg/injection, schedule: Q04DX003 (ip), vehicle: saline",272 % of control and 95 % of control and 100 % of control

# Reference: PubChem BioAssay AID328 (DTP/NCI, 2004)
